Target: FoxA (Salmonella enterica, UniProt E1W8M5)
Experiment: […]-DFOE radioligand binding to whole Salmonella cells expressing FoxA, at […]-4 °C with CCCP, filtration and scintillation counting; pH […] and […]
Format: cell-based

Sequence of FoxA (E1W8M5 31-702): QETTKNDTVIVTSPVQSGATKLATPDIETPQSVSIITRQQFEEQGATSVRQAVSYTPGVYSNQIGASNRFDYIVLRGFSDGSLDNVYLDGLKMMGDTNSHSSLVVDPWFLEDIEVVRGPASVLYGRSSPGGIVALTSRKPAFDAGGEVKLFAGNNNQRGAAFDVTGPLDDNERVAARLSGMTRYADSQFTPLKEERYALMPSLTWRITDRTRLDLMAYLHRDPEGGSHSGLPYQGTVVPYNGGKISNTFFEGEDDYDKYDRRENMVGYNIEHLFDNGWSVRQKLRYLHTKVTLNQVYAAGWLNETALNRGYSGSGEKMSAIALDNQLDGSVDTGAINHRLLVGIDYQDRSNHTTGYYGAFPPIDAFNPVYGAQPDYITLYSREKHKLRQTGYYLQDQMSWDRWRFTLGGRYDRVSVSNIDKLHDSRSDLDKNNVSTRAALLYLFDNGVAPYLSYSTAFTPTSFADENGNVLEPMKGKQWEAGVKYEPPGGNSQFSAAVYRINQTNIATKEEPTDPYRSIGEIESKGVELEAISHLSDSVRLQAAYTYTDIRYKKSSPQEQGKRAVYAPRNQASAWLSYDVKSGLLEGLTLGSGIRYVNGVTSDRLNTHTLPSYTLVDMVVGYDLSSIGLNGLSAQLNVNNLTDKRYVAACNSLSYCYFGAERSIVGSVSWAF

Molecule `O=C1CCC(=O)N(O)CCCCCNC(=O)CCC(=O)N(O)CCCCCNC(=O)CCC(=O)N(O)CCCCCN1` [DFOE, ferrioxamine E] has a Kd of about 3.2 nM.
